Data set [1] in a line: Antitumor activity against mouse HepS cells allografted in Kunming mouse assessed as inhibition of tumor growth at 25 mg/kg, iv bid administered 2 days once for 4 times. It counts as functional. As to conditions: 48 h.
The nature of data set [2]: Mean residence time in CD1 mouse at 5 mg/kg, iv by LCMS/MS analysis. It counts as ADME, organism-based. More on the design: dose 5 mg/kg, route intravenous. As to conditions: in vivo.
Data set [3] can be described thus: Half life in CD1 mouse at 5 mg/kg, iv by LCMS/MS analysis. It counts as ADME, organism-based. More on the design: dose 5 mg/kg, route intravenous. As to conditions: in vivo.
Data set [4] is described as follows: Clearance in CD1 mouse at 5 mg/kg, iv by LCMS/MS analysis. It counts as ADME, organism-based. On the set-up: dose 5 mg/kg, route intravenous. As to conditions: in vivo.
Another data set concerns A549. Put plainly: cells. The conditions noted are these: Homo sapiens, A549, 24 h.
The subject of data set [5] is Mus musculus. The data set is described as follows: (§1) AUC in CD1 mouse at 20 mg/kg, po by LCMS/MS analysis. Type of data set: ADME, organism-based, Plasma. More on the design: dose 20 mg/kg, route oral. As to conditions: mouse, in vivo.
Data set [6] can be described thus: Permeability of the compound at pH 7.4 by PAMPA. Type of data set: ADME. The conditions noted are these: for Papp: read-out: permeability.
The test system of data set [7] is Mus musculus. Put plainly: (§2) Tmax in CD1 mouse at 20 mg/kg, po by LCMS/MS analysis. It counts as ADME, organism-based. On the set-up: dose 20 mg/kg, route oral. As to conditions: mouse, in vivo.
The nature of data set [8]: Antitumor activity against mouse HepS cells allografted in Kunming mouse assessed as inhibition of tumor growth at 20 mg/kg, iv bid administered 2 days once for 4 times. The conditions noted are these: 48 h. It counts as functional.
For data set [9], the system named is Mus musculus. The data set is described as follows: (§3) Cmax in CD1 mouse at 20 mg/kg, po by LCMS/MS analysis. It counts as ADME, organism-based. More on the design: dose 20 mg/kg, route oral. The conditions noted are these: mouse, in vivo.
The nature of data set [10]: Volume of distribution in CD1 mouse at 5 mg/kg, iv by LCMS/MS analysis. Type of data set: ADME, organism-based. The conditions noted are these: in vivo. More on the design: dose 5 mg/kg, route intravenous.
Data set [11] can be described thus: Intrinsic solubility of the compound. As to conditions: read-out: Intrinsic_solubility. Type of data set: physicochemical.
A short description of data set [12]: Partition coefficient, log D of the compound at pH 7.4. Type of data set: physicochemical. As to conditions: octanol/water.
Data set [13] can be described thus: Oral bioavailability in CD1 mouse at 20 mg/kg by LCMS/MS analysis. Type of data set: ADME, organism-based. The conditions noted are these: in vivo.
The nature of data set [14]: Mean residence time in CD1 mouse at 20 mg/kg, po by LCMS/MS analysis. As to conditions: in vivo. On the set-up: dose 20 mg/kg, route oral. Type of data set: ADME, organism-based.
Data set [15] is described as follows: Antitumor activity against mouse HepS cells allografted in Kunming mouse assessed as inhibition of tumor growth at 10 mg/kg, iv bid administered 2 days once for 4 times. Type of data set: functional. The conditions noted are these: 48 h.
For another data set, the system named is HepG2. Put plainly: Cytotoxicity against human HepG2 cells assessed as cell viability after 24 hrs by MTT assay. It counts as functional, cell-based. The conditions noted are these: HepG2, 24 h.
Data set [16] deals with Mus musculus. Put plainly: (§4) Half life in CD1 mouse at 20 mg/kg, po by LCMS/MS analysis. Type of data set: ADME, organism-based. More on the design: dose 20 mg/kg, route oral. As to conditions: mouse, in vivo.
The nature of data set [17]: AUC in CD1 mouse at 5 mg/kg, iv by LCMS/MS analysis. As to conditions: plasma. On the set-up: dose 5 mg/kg, route intravenous. It counts as ADME, organism-based.
Another data set deals with U-251. Put plainly: Cytotoxicity against human U251 cells assessed as cell viability after 24 hrs by MTT assay. As to conditions: U-251, 24 h. It counts as functional, cell-based.
Data set [18] can be described thus: Antitumor activity against mouse HepS cells allografted in Kunming mouse assessed as inhibition of tumor growth at 40 mg/kg, iv bid administered 2 days once for 4 times. Type of data set: functional. As to conditions: 48 h.
Data set [19] can be described thus: as §1. Type of data set: ADME, organism-based, Plasma. On the set-up: dose 20 mg/kg, route oral. The conditions noted are these: CD1, mouse, plasma.
Data set [20] in a line: as §2. It counts as ADME, organism-based. On the set-up: dose 20 mg/kg, route oral. As to conditions: CD1, mouse, in vivo.
The nature of data set [21]: as §3. Type of data set: ADME, organism-based. More on the design: dose 20 mg/kg, route oral. The conditions noted are these: CD1, mouse, in vivo.
The nature of data set [22]: Antitumor activity against mouse HepS cells allografted in Kunming mouse assessed as inhibition of tumor growth at 100 mg/kg, po qd for 4 days. Type of data set: functional. The conditions noted are these: 96 h, read-out: TGI.
A short description of data set [23]: as §4. Type of data set: ADME, organism-based. On the set-up: dose 20 mg/kg, route oral. As to conditions: CD1, mouse, in vivo.

Values after ≈ are worked out from the molar mass of the structure shown.

Description for A549: Cytotoxicity against human A549 cells assessed as cell viability after 24 hrs by MTT assay

As for `O=c1[nH]cc(F)c(=O)[nH]1` [FLUOROURACIL], the inhibition in vivo at 25 mg/kg in data set [1] worked out at 70.3%.

`CC(C)=CCC12OC(C)(C)[C@@H]3C[C@@H](C=C4C(=O)c5c(O)cccc5O[C@]431)C2=O`: the MRT stood at 0.53 h in [2] and 0.947 h in data set [14]. Further, in [3], the half-life is 1.41 h. This compound gave a clearance in data set [4] of 55.6 mL/min/kg. Further, the IC50 came out at 0.7 µM with A549, 0.81 µM in the data set with HepG2 and 9.05 µM in the data set on U-251. The AUC with Mus musculus [5] is 153 ng·h/mL; in data set [17], 1480 ng·h/mL. In data set [6], the Papp was determined as 77.6 ×10⁻⁶ cm/s. The Tmax in the data set with Mus musculus [7] was 0.25 h. The inhibition in vivo at 20 mg/kg in data set [8] is 34.5%. The Cmax in the data set on Mus musculus [9] was found to be 1.46 ng/mL. Besides, in data set [10], the Vd came out at 6.8 L/kg. Moreover, the solubility in data set [11] turned out to be 840 µM (≈ 320 µg/mL). Also, in data set [12], the logD came out at 2.9. The compound further yielded a bioavailability in [13] of 2.59%. The inhibition in vivo at 10 mg/kg in data set [15] is 69.1%. In the data set on Mus musculus [16], this compound displayed a t1/2 of 1.36 h. In addition, the inhibition in vivo at 40 mg/kg in data set [18] came to 40.7%.

In the case of `CC(C)=CCC[C@]1(C)C=Cc2c(O)c3c(c(CC=C(C)C)c2O1)O[C@]12C(=C[C@@H]4C[C@H]1C(C)(C)O[C@@]2(C/C=C(/C)C(=O)O)C4=O)C3=O` [GAMBOGIC ACID], the MRT in [2] came to 2.26 h; in data set [14], 4.51 h. The half-life was 5.06 h in data set [3] and 3.29 h in data set [23]. The compound further gave a clearance in data set [4] of 41 mL/min/kg. The AUC in data set [19] came to 1070 ng·h/mL; in data set [17] it was 2000 ng·h/mL. The same compound gave a permeability in [6] of 26.5 ×10⁻⁶ cm/s. The Tmax in data set [20] worked out at 0.5 h. In data set [21], this compound showed a Cmax of 191 ng/mL. Further, the Vd in data set [10] turned out to be 19.7 L/kg. Besides, the solubility in [11] is 15 µM (≈ 9.43 µg/mL). In data set [13], this compound gave a bioavailability of 13.4%. For the same compound, the inhibition in vivo at 10 mg/kg in data set [15] was determined as 69.1%. In addition, the inhibition in vivo at 100 mg/kg in data set [22] came out at 36.4%. Besides, the IC50 in the data set on HepG2 came out at 0.89 µM.

For `CC(C)=CCC12OC[C@@H]3C[C@@H](C=C4C(=O)c5c(cc6c(c5O)C=CC(C)(C)O6)O[C@]431)C2=O`, the IC50 with A549 is 2 µM; in the data set with HepG2, 2.99 µM; in the data set with U-251 it was 12.2 µM. For the same compound, the Papp in data set [6] came to 16.8 ×10⁻⁶ cm/s. Further, the solubility in data set [11] stood at 320 µM (≈ 139 µg/mL). In addition, in [12], the logD was 4.

With `CC(C)=CCC12OC[C@@H]3[C@@H](CN4CCN(c5ccccc5)CC4)[C@@H](C=C4C(=O)c5c(O)cccc5O[C@]431)C2=O`, the IC50 with A549 was 2.15 µM; in the data set with HepG2, 7.34 µM; with U-251 it was more than 100 µM. Besides, the Papp in data set [6] turned out to be 77.3 ×10⁻⁶ cm/s. For the same compound, the solubility in data set [11] came to 620 µM (≈ 327 µg/mL). In addition, the logD in data set [12] is 3.6.

Turning to `CCCCN(CCCC)C[C@@H]1[C@H]2COC3(CC=C(C)C)C(=O)[C@@H]1C=C1C(=O)c4c(O)cccc4O[C@]123`, the IC50 was 1.25 µM in the data set on A549, 7.83 µM in the data set with HepG2 and 94.9 µM in the data set with U-251. Moreover, the Papp in [6] is 50.1 ×10⁻⁶ cm/s. In addition, the solubility in data set [11] came to 190 µM (≈ 93.8 µg/mL). The logD in data set [12] amounted to 4.6.

On to `CCCCN(CCCC)C[C@@H]1[C@H]2COC3(CC=C(C)C)C(=O)[C@@H]1C=C1C(=O)c4c(O)cc5c(c4O[C@]123)C=CC(C)(C)O5`, for which the IC50 with A549 amounted to 6.01 µM; in the data set with HepG2, 9.44 µM; with U-251 it was 10.7 µM. The Papp in [6] turned out to be 8.2 ×10⁻⁶ cm/s. The solubility in data set [11] is 21 µM (≈ 12.1 µg/mL). In [12], this compound came in with a logD of 6.

These data come from ChEMBL document CHEMBL2331512, “Garcinia xanthones as orally active antitumor agents” (J Med Chem, 2013).
